Experimental findings from ChEMBL document CHEMBL5576041, “13-oxyingenol dodecanoate derivatives induce mitophagy and ferroptosis through targeting TMBIM6 as potential anti-NSCLC agents” (Eur J Med Chem, 2024) are described below.

Holding throughout (type): functional, cell-based
Experiment [1] concerns HepG2. Kind of experiment: Antiproliferative activity against human HepG2 cells assessed as inhibition of cell growth incubated for 24 to 72 hrs by CCK8 assay. A general note: Tetrazolium dyes change colour on reduction, which living cells bring about.
Experiment [2] relates to A549. The experiment can be described thus: Antiproliferative activity against human A549 cells assessed as inhibition of cell growth incubated for 24 to 72 hrs by CCK8 assay.
Experiment [3] has as its system NCI-H460. The experiment can be described thus: Antiproliferative activity against human NCI-H460 cells assessed as inhibition of cell growth incubated for 24 to 72 hrs by CCK8 assay.

Structures are written as SMILES.

Broadly, the IC50 is the concentration needed to halve the response being measured. Turning to `CCCCCCCCCCCC(=O)O[C@@]12C[C@@H](C)[C@]34C=C(C)[C@H](O)[C@@]3(O)[C@H](O)C(COC(=O)c3ccc(F)cc3)=C[C@H](C4=O)[C@@H]1C2(C)C`, the IC50 in experiment [1] amounted to 7.6 µM; in experiment [2], 21.2 µM; in experiment [3] it was 4.5 µM.

Consider `CCCCCCCCCCCC(=O)O[C@@]12C[C@@H](C)[C@]34C=C(C)[C@H](OCc5ccccc5)[C@@]3(O)[C@H](O)C(CO)=C[C@H](C4=O)[C@@H]1C2(C)C`, for which the results for the IC50 in experiment [1], in experiment [2] and in experiment [3] were 8.8 µM, 16.2 µM and 23.5 µM, respectively.

With `CCCCCCCCCCCC(=O)O[C@@]12C[C@@H](C)[C@]34C=C(C)[C@H](OC(=O)c5ccc(OC)cc5)[C@@]3(O)[C@H](O)C(CO)=C[C@H](C4=O)[C@@H]1C2(C)C`, the IC50 was determined as 14.3 µM in experiment [1] and 23.6 µM in experiment [2].

As to `CCCCCCCCCCCC(=O)O[C@@]12C[C@@H](C)[C@]34C=C(C)[C@H](OC(=O)C5CCCCC5)[C@@]3(O)[C@H](O)C(CO)=C[C@H](C4=O)[C@@H]1C2(C)C`, the results for the IC50 in experiment [1] and in experiment [2] were 13.4 µM and 17.1 µM, respectively.

With `CCCCCCCCCCCC(=O)O[C@@]12C[C@@H](C)[C@]34C=C(C)[C@H](OC(=O)NCCCCC)[C@@]3(O)[C@H](O)C(CO)=C[C@H](C4=O)[C@@H]1C2(C)C`, the IC50 in experiment [1] stood at 1.7 µM; in experiment [2] it was 32.8 µM; in experiment [3], 5.4 µM.

Consider `CCCCCCCCCCCC(=O)O[C@@]12C[C@@H](C)[C@]34C=C(C)[C@H](OC(=O)NCCCCCCCC)[C@@]3(O)[C@H](O)C(CO)=C[C@H](C4=O)[C@@H]1C2(C)C`, for which the IC50 in experiment [2] stood at 19.1 µM; in experiment [3], 14.3 µM.

In the case of `CCCCCCCCCCCC(=O)O[C@@]12C[C@@H](C)[C@]34C=C(C)[C@H](OCCC)[C@@]3(O)[C@H](O)C(CO)=C[C@H](C4=O)[C@@H]1C2(C)C`, the IC50 in experiment [1] is 12.7 µM; in experiment [2], 30 µM.

As to `CCCCCCCCCCCC(=O)O[C@@]12C[C@@H](C)[C@]34C=C(C)[C@H](OC)[C@@]3(O)[C@H](O)C(CO)=C[C@H](C4=O)[C@@H]1C2(C)C`, the half-maximal inhibitory concentration (IC50) in experiment [1] is 13.6 µM; in experiment [2], 16.6 µM.

Take `CCCCCCCCCCCC(=O)O[C@@]12C[C@@H](C)[C@]34C=C(C)[C@H](OCC)[C@@]3(O)[C@H](O)C(CO)=C[C@H](C4=O)[C@@H]1C2(C)C`: the IC50 in experiment [1] was 13.6 µM; in experiment [2], 27.2 µM; in experiment [3], 45.8 µM.

Take `CCCCCCCCCCCC(=O)O[C@@]12C[C@@H](C)[C@]34C=C(C)[C@H](OC(=O)N5CCCC5)[C@@]3(O)[C@H](O)C(CO)=C[C@H](C4=O)[C@@H]1C2(C)C`: the IC50 in experiment [1] was 21.1 µM; in experiment [2], 27.9 µM.

On to `CCCCCCCCCCCC(=O)O[C@@]12C[C@@H](C)[C@]34C=C(C)[C@H](OC(=O)NC(C)C)[C@@]3(O)[C@H](O)C(CO)=C[C@H](C4=O)[C@@H]1C2(C)C`, for which the figures for the concentration for half-maximal inhibition (IC50) in experiment [1] and in experiment [2] were 13.5 µM and 18.1 µM, respectively.

Take `CCCCCCCCCCCC(=O)O[C@@]12C[C@@H](C)[C@]34C=C(C)[C@H](OC(=O)NCCCCCC)[C@@]3(O)[C@H](O)C(CO)=C[C@H](C4=O)[C@@H]1C2(C)C`: the values for the IC50 in experiment [2] and in experiment [3] were 31 µM and 29 µM, respectively.

For the compound `CCCCCCCCCCCC(=O)O[C@@]12C[C@@H](C)[C@]34C=C(C)[C@H](OC(=O)c5ccc(Br)cc5)[C@@]3(O)[C@H](O)C(COC(=O)c3ccc(Br)cc3)=C[C@H](C4=O)[C@@H]1C2(C)C`, the IC50 in experiment [2] and in experiment [3] was more than 50 µM in each case.

Consider `CCCCCCCCCCCC(=O)O[C@@]12C[C@@H](C)[C@]34C=C(C)[C@H](OC(=O)c5ccccc5)[C@@]3(O)[C@H](O)C(CO)=C[C@H](C4=O)[C@@H]1C2(C)C`, for which the results for the IC50 in experiment [1] and in experiment [2] were 14.5 µM and 23.8 µM, respectively.

Take `CCCCCCCCCCCC(=O)O[C@@]12C[C@@H](C)[C@]34C=C(C)[C@H](OC(=O)NC5CC5)[C@@]3(O)[C@H](O)C(CO)=C[C@H](C4=O)[C@@H]1C2(C)C`: the IC50 came out at 12.7 µM in experiment [1] and 13.7 µM in experiment [2].

Consider `CCCCCCCCCCCC(=O)O[C@@]12C[C@@H](C)[C@]34C=C(C)[C@H](OC(=O)NCc5ccc(C)cc5)[C@@]3(O)[C@H](O)C(CO)=C[C@H](C4=O)[C@@H]1C2(C)C`, for which the IC50 was 27 µM in experiment [1] and more than 50 µM in experiment [2].

As for `CCCCCCCCCCCC(=O)O[C@@]12C[C@@H](C)[C@]34C=C(C)[C@H](OC(=O)c5ccc6ccccc6c5)[C@@]3(O)[C@H](O)C(CO)=C[C@H](C4=O)[C@@H]1C2(C)C`, the IC50 in experiment [1] and in experiment [2] was more than 50 µM in each case.

Regarding `CCCCCCCCCCCC(=O)O[C@@]12C[C@@H](C)[C@]34C=C(C)[C@H](OC(=O)NC5CCCC5)[C@@]3(O)[C@H](O)C(CO)=C[C@H](C4=O)[C@@H]1C2(C)C`, the results for the IC50 in experiment [1], in experiment [2] and in experiment [3] were 8.7 µM, 11.9 µM and 17.9 µM, respectively.

Turning to `CCCCCCCCCCCC(=O)O[C@@]12C[C@@H](C)[C@]34C=C(C)[C@H](O)[C@@]3(O)[C@H](O)C(COC(=O)c3ccc([N+](=O)[O-])cc3)=C[C@H](C4=O)[C@@H]1C2(C)C`, the 50% inhibitory concentration (IC50) turned out to be 15.5 µM in experiment [1], 12.8 µM in experiment [2] and 2.6 µM in experiment [3].

For `CCCCCCCCCCCC(=O)O[C@@]12C[C@@H](C)[C@]34C=C(C)[C@H](OC(=O)c5ccc(F)cc5)[C@@]3(O)[C@H](O)C(COC(=O)c3ccc(F)cc3)=C[C@H](C4=O)[C@@H]1C2(C)C`, the figures for the 50% inhibitory concentration (IC50) in experiment [1], in experiment [2] and in experiment [3] were more than 50 µM, 12.5 µM and 5.4 µM, respectively.

For the compound `CCCCCCCCCCCC(=O)O[C@@]12C[C@@H](C)[C@]34C=C(C)[C@H](OC(=O)NCCCC)[C@@]3(O)[C@H](O)C(CO)=C[C@H](C4=O)[C@@H]1C2(C)C`, the IC50 in experiment [1] was 10.3 µM; in experiment [2], 25.6 µM; in experiment [3] it was 9.7 µM.

On to `CCCCCCCCCCCC(=O)O[C@@]12C[C@@H](C)[C@]34C=C(C)[C@H](OC(=O)c5ccc(-c6ccccc6)cc5)[C@@]3(O)[C@H](O)C(CO)=C[C@H](C4=O)[C@@H]1C2(C)C`, for which the IC50 in experiment [1] and in experiment [2] was more than 50 µM throughout.

`CCCCCCCCCCCC(=O)O[C@@]12C[C@@H](C)[C@]34C=C(C)[C@H](O)[C@@]3(O)[C@H](O)C(COC(=O)c3ccc(Br)cc3)=C[C@H](C4=O)[C@@H]1C2(C)C`: the half-maximal inhibitory concentration (IC50) in experiment [2] and in experiment [3] was more than 50 µM each time.

As to `CCCCCCCCCCCC(=O)O[C@@]12C[C@@H](C)[C@]34C=C(C)[C@H](OC(=O)NCc5ccc(F)cc5)[C@@]3(O)[C@H](O)C(CO)=C[C@H](C4=O)[C@@H]1C2(C)C`, the IC50 in experiment [1] was 10.9 µM; in experiment [2] it was 9.4 µM; in experiment [3], 11.8 µM.

As to `CCCCCCCCCCCC(=O)O[C@@]12C[C@@H](C)[C@]34C=C(C)[C@H](OC(=O)c5ccc(Br)cc5)[C@@]3(O)[C@H](O)C(CO)=C[C@H](C4=O)[C@@H]1C2(C)C`, the IC50 was more than 50 µM in experiment [1], 10 µM in experiment [2] and 7.9 µM in experiment [3].

Take `CCCCCCCCCCCC(=O)O[C@@]12C[C@@H](C)[C@]34C=C(C)[C@H](OC(=O)c5ccc([N+](=O)[O-])cc5)[C@@]3(O)[C@H](O)C(CO)=C[C@H](C4=O)[C@@H]1C2(C)C`: the IC50 in experiment [1] was 12 µM; in experiment [2] it was 14.2 µM.

As for `C/C=C(/C)C(=O)O[C@H]1C(C)=C[C@]23C(=O)[C@@H](C=C(CO)[C@@H](O)[C@]12O)[C@H]1[C@@H](C[C@H]3C)C1(C)C` [INGENOL MEBUTATE], the IC50 in experiment [1], in experiment [2] and in experiment [3] was more than 50 µM in each case.
